This is an account of results in publication PMC10747599 (Viruses, 2023).

Each structure is given as a SMILES string.

Series [1] has as its system SLEV infection in Vero CCL81 cells. Put plainly: microbe, parasite or virus in culture. Conditions: for EC50: St. Louis encephalitis virus, 72 h. The class given is cell-based, St. Louis encephalitis virus (SLEV BeH 355964).
Series [2] has as its system Vero CCL81 cells. Put plainly: MTT cell viability assay, Vero CCL81.
For another series, the system named is Huh-7 cells. Kind of series: MTT cell viability assay, Huh-7. Conditions: Huh-7, 48 h; for loss/reduction in cell viability vs vehicle-treated cells: 20 µM.
The subject of series [3] is SLEV. Put plainly: Viral load by plaque-forming assay, SLEV-infected Vero CCL81. The class given is cell-based, St. Louis encephalitis virus (SLEV BeH 355964). To be noted: Vero CCL81, MOI 0.1.
For series [4], the system named is SLEV. Kind of series: Viral load by plaque-forming assay, SLEV-infected Huh-7. Type of series: cell-based, St. Louis encephalitis virus (SLEV BeH 355964). To be noted: Huh-7, MOI 0.1, 48 h.
The nature of series [5]: Confirmatory dose-response assay, cytotoxicity (CC50). To be noted: African green monkey, Vero CCL81 cells.
Series [6] concerns Vero CCL81 cells. Described as above. Conditions: Vero CCL81, dose-response 100 to 0.32 µM.
Series [7] deals with SLEV infection in Vero CCL81 cells. Type of series: cell-based, St. Louis encephalitis virus (SLEV BeH 355964). To be noted: 20 µM.
Series [8] relates to SLEV. Kind of series: Viral load by plaque-forming assay, SLEV-infected HBEC-5i. The class given is cell-based, St. Louis encephalitis virus (SLEV BeH 355964).
The next series relates to HBEC-5i cells. Put plainly: MTT cell viability assay, HBEC-5i. To be noted: HBEC-5i; for reduction in cell viability / toxicity: 20 µM, 48 h; for toxicity at lower concentrations: 20 µM to 2.5 µM, MOI 0.1, 48 h (Figure 5). A general note: Formazan colour is commonly taken as a measure of viable cells.
A short description of series [9]: MTT cell viability assay, HBEC-5i. To be noted: human, HBEC-5i cells.

Usually EC50 stands for the concentration that produces a half-maximal response. Lower therefore signals a more potent agent. Broadly, the CC50 is the concentration at which the toxic effect on the cells reaches its halfway point. In general, viability refers to the share of living cells, or the viability signal relative to a control. Read a low viability as a greater loss of cells.

In series [1], `C[C@@]1(O)[C@H](O)[C@@H](CO)O[C@H]1n1ccc2c(N)ncnc21` [7DMA, 7-deaza-2′-C-methyl-D-adenosine] gave an EC50 of 5.1 µM. Besides, in the series with Vero CCL81 cells [2] (40 µM (7DMA), Vero CCL81), the “reduction in cell viability” value is recorded as “less than 10%”. In the series with Huh-7 cells (40 µM (7DMA)), the “reduction in cell viability vs vehicle-treated cells” value is “approx. 10%”. For the same compound, the “reduction in viral load relative to vehicle-treated controls” value in the series on SLEV [3] (40 µM (7DMA)) is “approximately 10 fold”. Further, the “reduction in viral load” value in the series with SLEV [4] (40 µM (7DMA)) came out at 10 fold. This compound registered a CC50 at 72 h in series [5] of over 100 µM. In addition, the CC50 result in the series on Vero CCL81 cells [6] is given as “least cytotoxic”.
In [1], `C[C@@H]1CCCN1CCc1cc2cc(-c3ccc(C#N)cc3)ccc2o1` [ABT-239, 4-(2-{2-[(2R)-2-Methylpyrrolidinyl]ethyl}-benzofuran-5-yl)benzonitrile] yielded an EC50 of 3.4 µM. Besides, in [7], the “inhibition of SLEV-induced CPE (hit call, cytoprotective effect)” value (“inhibition of SLEV-induced CPE” for short) is on record as “cytoprotective effect”. In addition, the “loss/reduction in cell viability vs vehicle-treated cells” value (“loss/reduction in cell viability” below) in the series on Huh-7 cells is reported as “approx. 10%”. Besides, the “reduction in viral load relative to vehicle-treated controls” value in the series on SLEV [3] (20 µM) is recorded as “approximately 10 fold”. The “reduction in viral titers in culture supernatant” value (“reduction in viral titers” below) with SLEV [8] (20 µM, MOI 0.1, 48 h) is “approx. 10 fold”. The “reduction in cell viability / toxicity” value in the series with HBEC-5i cells was “not toxic”. The compound also returned a cytotoxic concentration (CC50) at 72 h in series [5] of 80.2 µM.
Consider `CCCCc1oc2ccccc2c1C(=O)c1cc(I)c(OCCN(CC)CC)c(I)c1` [Amiodarone], for which, in [7], the “inhibition of SLEV-induced CPE” value is listed as “cytoprotective effect”. Also, the “loss/reduction in cell viability” value in the series on Huh-7 cells was “approx. 10%”. The “reduction in viral titers” value in the series with SLEV [8] (20 µM, MOI 0.1, 48 h) is on record as “over 10 fold”. The “reduction in viral load” value with SLEV [4] (20 µM) was “not significant”.
On to `OCCN1CCN(CCCN2c3ccccc3Sc3ccc(C(F)(F)F)cc32)CC1` [Fluphenazine], for which the “inhibition of SLEV-induced CPE” value in series [7] was “cytoprotective effect”. The “loss/reduction in cell viability” value with Huh-7 cells worked out at 90%. Also, the “reduction in viral titers” value in the series with SLEV [8] (20 µM, MOI 0.1, 48 h) is on record as over 100 fold. In addition, the “reduction in viral load” value with SLEV [8] (20 µM, MOI 0.1, 48 h, concentration series (Figure 5)) is “over 50 fold”. Besides, in the series on HBEC-5i cells, the “toxicity at lower concentrations” value was “not toxic” and the “reduction in cell viability / toxicity” value is recorded as “not toxic”. In series [5], this compound gave a CC50 at 72 h of 30.2 µM.
On to `FC(F)(F)c1ccc(CNc2ccc(Cc3c[nH]c4ncc(Cl)cc34)cn2)cn1` [Pexidartanib], for which, in series [7], the “inhibition of SLEV-induced CPE” value was “cytoprotective effect”.
In series [1], `CC[C@@H]([C@H](C)O)n1ncn(-c2ccc(N3CCN(c4ccc(OC[C@@H]5CO[C@@](Cn6cncn6)(c6ccc(F)cc6F)C5)cc4)CC3)cc2)c1=O` [Posaconazole] came in with an EC50 of 0.4 µM. The “Selectivity Index (SI, CC50/EC50 ratio)” value in series [1] (Vero CCL81) is at least 12. Besides, in [7], the “inhibition of SLEV-induced CPE” value is “cytoprotective effect”. For the same compound, the “reduction in cell viability” value with Vero CCL81 cells [2] (20 µM, Vero CCL81, vs non-treated controls) worked out at 40%. Moreover, the “loss/reduction in cell viability” value with Huh-7 cells turned out to be 50%. Also, the “reduction in cell viability / toxicity” value in the series on HBEC-5i cells is given as “approximately 70%”. The compound also came in with a CC50 at 72 h in series [5] of over 100 µM. Moreover, the CC50 result in the series on Vero CCL81 cells [6] was “least cytotoxic”.
In the case of `NCCc1cn(S(=O)(=O)c2c(Cl)nc3sccn23)c2ccccc12` [SAX-187], the “inhibition of SLEV-induced CPE” value in [7] is listed as “cytoprotective effect”.
With `CCN(CC)CCOc1ccc(C(O)(Cc2ccc(Cl)cc2)c2ccc(C)cc2)cc1` (stereo not shown) [Triparanol], a half-maximal effect in series [1] (EC50) was put at 0.9 µM. Besides, the “inhibition of SLEV-induced CPE” value in [7] is “cytoprotective effect”. Besides, the “loss/reduction in cell viability” value in the series with Huh-7 cells is on record as 90%. Further, the “antiviral effect (viral load)” value with SLEV [8] (2.5 µM, MOI 0.1, 48 h (Figure 5)) was “lost”. In addition, the “antiviral effect (viral load)” value in the series on SLEV [8] (5 µM, MOI 0.1, 48 h (Figure 5)) is given as “lost”. The “reduction in viral load vs vehicle-treated infected group” value with SLEV [8] (10 µM, MOI 0.1, 48 h (Figure 5)) is on record as “over 10 fold”. For the same compound, in the series with HBEC-5i cells, the “toxicity at lower concentrations” value is “not toxic” and the “reduction in cell viability / toxicity” value is reported as about 60%. In addition, the CC50 at 72 h in series [5] is 18.5 µM.
In turn, `COc1cccc(-c2ccc(NC(=O)C3=C(C(=O)O)CCC3)c(F)c2)c1` [Vidofludimus] gave an EC50 in series [1] of 8.2 µM. In addition, in series [7], the “inhibition of SLEV-induced CPE” value is given as “cytoprotective effect”. Further, the “loss/reduction in cell viability” value in the series with Huh-7 cells is “approx. 10%”. For the same compound, the “reduction in viral load relative to vehicle-treated controls” value in the series with SLEV [3] (20 µM) is “approximately 10 fold”. Moreover, the “reduction in viral titers” value in the series with SLEV [8] (20 µM, MOI 0.1, 48 h) is listed as “No antiviral activity”. Moreover, the viability at 48 h, 20 µM in [9] was at most 90%. Further, in [5], the CC50 at 72 h is over 100 µM. Besides, in the series on Vero CCL81 cells [6], the CC50 result is “least cytotoxic”.
